Test results from patent publication US20140179780A1, “PHARMACEUTICAL COMPOSITION CONTAINING OLEANOLIC ACID ACETATE AS AN ACTIVE INGREDIENT FOR PREVENTING OR TREATING TLR- OR IL-6-MEDIATED DISEASES” (Korea Research Institute of Bioscience and Biotechnology, priority 2011, published 2014).
Values joined by “and” are separate entries in the source; they are usually repeats but may differ in a detail not shown here. Identical values can stand only once. Like-named read-outs stand apart in the source and are kept apart here.

Key:
[1] = system: IL-6-induced STAT3 transcriptional activation; assay: IL-6 reactive STAT3 reporter gene (luciferase) assay in Hep3B cells; type: cell-based; details: for Inhibition (%) of STAT3 luciferase activity / IC50: IL-6 10 ng/ml; for IC50: read-out: IC50, inhibition of IL-6-induced STAT3 luciferase activity; for Effect on STAT3 luciferase activity (in words): IL-6
Experimental: pStat3-Luc and pcDNA3.1(+) (Clontech laboratories, Palo Alto, Calif.) were transfected into Hep3B cells (ATCC HB-8064) using lipofectamine plus (Invitrogen, Carlsbad, Calif., USA) at the same time. 2 days later, the cells were treated with hygromycin (100 μg/ml) to obtain clones stably expressing luciferase. Luciferase analysis was performed to examine whether luciferase is stably expressed in the clones.
The transfected cells in the clones obtained in Example 5-1 were cultured in DMEM (GIBCO 119950965) under serum starvation, and the samples were treated for 1 hour as follows. 10 ng/ml IL-6 (R&D system, USA) was added thereto, followed by cultivation for 12 hours.
The cultured cells were washed with PBS and 50 μl of lysis buffer (luciferase assay system, promega, USA) was added thereto, followed by stirring for 20 minutes. 30-100 μl of luciferase substrate (luciferase assay system, promega, USA) was added to measure […] using a luminometer (EG&G BERTHOLD, USA) within 5 minutes (Tables 5 and 6).
In detail, the inhibitory effects of oleanolic acid or oleanolic acid acetate on STAT3 luciferase activity was measured in the same manner as in Example 5-2, except that oleanolic acid or oleanolic acid acetate was treated as a sample in an amount of 0.1, 1, 3, 6 or 10 μM, respectively and compared with each other (FIG. 14).

[2] = system: poly(I:C)-induced NFkB/AP-1 dependent SEAP activity (TLR3 signaling pathway); assay: Poly(I:C)-induced NFkB/AP-1-dependent SEAP activity in THP1-Blue-CD14 cells; type: cell-based, Human; details: for Effect on poly(I:C)-induced SEAP activity (in words): THP-1-blue cells
Experimental: (§1) THP1-Blue-CD14 cells were seeded at a density of 2×10^5 cells/100 μl in a 96-well plate, and cultured at 37° C. for 3 hours.

[3] = system: poly(I)-induced NFkB/AP-1 dependent SEAP activity (TLR7 signaling pathway); assay: Poly(I)-induced NFkB/AP-1-dependent SEAP activity in THP1-Blue-CD14 cells; type: cell-based, Human; details: for Effect on poly(I)-induced SEAP activity (in words): THP-1-blue cells
Experimental: as §1

STAT3 phosphorylation = assay: IL-6-induced STAT3 phosphorylation in Hep3B cells (Western blot); type: cell-based; details: IL-6 20 ng/ml 20 minutes, FIGS. 8a, 8b
Experimental: Hep3B cells were seeded in a 6-well plate at a density of 5×10^5 per well, and cultured to a confluency of 80% in a culture plate. Then, the medium was replaced with serum-free medium and further cultured for 12 hours, and the samples were treated for 60 minutes as follows.
Next, 20 ng/ml of IL-6 was treated, and reacted for 20 minutes, and 40 μl of lysis buffer (pH 8, 20 mM Tris-HCl, 137 mM NaCl, 10% glycerol, 1% Triton X-100, 1 mM Na3VO4, 2 mM EDTA, 1 mM APMSF, 20 μM leupeptin, 20 μg/ml aprotonin; Sigma, USA) was used for cell lysis. Centrifugation (13000 g, 15 minutes) was performed to obtain supernatants containing proteins. Protein concentrations were quantified using a DC protein assay kit (Bio-Rad, USA), and proteins were loaded in a 4˜12% SDS polyacrylamide gel (SDS-PAGE) and electrophoresis was performed at 175 mA for 2 hours. After electrophoresis, the proteins of the gel were transferred onto a PVDF membrane (Westran S, pore size […]; Whatman, USA) at 35 V for 90 minutes. The transferred membrane was blocked with Tris-buffer (T-TBS; 50 mM Tri-HCl, pH 7.6, 150 mM NaCl, 0.2% Tween-20, 5% skim milk; Sigma, USA) at room temperature for 1 hour, and washed with T-TBS five times. The membrane was treated with polyclonal antibody of phospho-STAT3 (1:1000 dilution) as a primary antibody at 4° C. 12 hours. […]

[4] = system: osteoclast differentiation from bone marrow macrophages; assay: RNAKL-induced osteoclast differentiation of bone marrow macrophages (TRAP staining); type: cell-based, mouse; details: for Osteoclast differentiation (number and size of TRAP-positive osteoclasts): M-CSF 30 ng/ml, RNAKL 50 ng/ml, 4 days
Experimental: Femurs and tibia were removed from 5-week-old mice, and the bone cavity was washed using a 1 cc syringe to obtain bone marrow cells. The isolated bone marrow cells were cultured in α-MEM (α-minimum essential medium) containing 10% FBS, antibiotic, M-CSF (30 ng/ml) for 3 days. 3 days later, the adherent cells were used as bone marrow macrophage (BMM). The bone marrow macrophages were cultured by addition of M-CSF (30 ng/ml) and an osteoclast differentiation factor RNAKL (Receptor activator of nuclear factor kappa-B ligand) (50 ng/ml) and treated with the adzuki bean extract and oleanolic acid acetate at each concentration. 4 days later, the cultured cells were stained with a TRAP solution (Sigma Aldrich, USA), and red stained cells were determined as differentiated osteoclasts.

[5] = Homo sapiens, sample 30 μM, poly(I:C) 100 μg/ml, read-out: Inhibition (%) of poly(I:C)-induced SEAP activity
[6] = Homo sapiens, sample 60 μM, poly(I:C) 100 μg/ml, read-out: Inhibition (%) of poly(I:C)-induced SEAP activity
[7] = Homo sapiens, sample 30 μM, poly(I) 50 μg/ml, read-out: Inhibition (%) of poly(I)-induced SEAP activity
[8] = Homo sapiens, sample 60 μM, poly(I) 50 μg/ml, read-out: Inhibition (%) of poly(I)-induced SEAP activity
[9] = Homo sapiens, read-out: Inhibition (%) of poly(I:C)-induced SEAP activity
[10] = Homo sapiens, read-out: Inhibition (%) of poly(I)-induced SEAP activity

## CC1(C)CC[C@]2(C(=O)O)CC[C@]3(C)C(=CC[C@@H]4[C@@]5(C)CC[C@H](O)C(C)(C)[C@@H]5CC[C@]43C)[C@@H]2C1 [oleanolic acid]
[1]; sample 10 μM
  Inhibition (%) of STAT3 luciferase activity: approximately 14%

## C[C@@H]1O[C@@H](OC[C@H]2O[C@@H](Oc3c(-c4ccc(O)c(O)c4)oc4cc(O)cc(O)c4c3=O)[C@H](O)[C@@H](O)[C@@H]2O)[C@H](O)[C@H](O)[C@H]1O [Rutin, rutin, reference compound]
[2]; [5]
  inhibition at 30 µM: < 0%
[2]; [6]
  inhibition at 60 µM: < 0%
[3]; [7]
  inhibition at 30 µM: < 0%
[3]; [8]
  inhibition at 60 µM: < 0%

## O=c1c(-c2ccc(O)cc2)coc2cc(O)cc(O)c12 [Genistein, reference compound]
[1]; sample 100 μM
  Inhibition (%) of STAT3 luciferase activity: 95.2% and 95.1% and 95.4%

## CC[C@H](/C=C/[C@@H](C)[C@H]1CC[C@H]2[C@@H]3CC=C4C[C@@H](O)CC[C@]4(C)[C@H]3CC[C@]12C)C(C)C [Stigmasterol, (3S,8S,9S,10R,13R,14S,17R)-17-[(E,2R,5S)-5-ethyl-6-methylhept-3-en-2-yl]-10,13-dimethyl-2,3,4,7,8,9,11,12,14,15,16,17-dodecahydro-1H-cyclopenta[a]phenanthren-3-ol]
[2]; [9]
  inhibition at 30 µM: 8.71%
  inhibition at 60 µM: 4.92%
  inhibition at 100 µM: < 0%
[2]
  Effect on poly(I:C)-induced SEAP activity (in words): did not show the inhibitory activity
[3]; [10]
  inhibition at 30 µM: < 0%
  inhibition at 60 µM: 2.63%
  inhibition at 100 µM: 1.42%
[3]
  Effect on poly(I)-induced SEAP activity (in words): did not show the inhibitory activity
[1]; Homo sapiens
  IC50: 90000 nM
[1]
  Effect on STAT3 luciferase activity (in words): inhibited STAT3 luciferase activity in a concentration dependent manner
[1]; sample 60 μM
  Inhibition (%) of STAT3 luciferase activity: 29.4%
[1]; sample 100 μM
  Inhibition (%) of STAT3 luciferase activity: 58.4%

## OC[C@H]1O[C@@H](Oc2cc(O)c3c(c2)O[C@H](c2ccc(O)c(O)c2)[C@@H](O)C3)[C@H](O)[C@@H](O)[C@@H]1O [Catechin-7-glucopyranoside, catechin-7-glucopyranoside, reference compound]
[2]
  Effect on poly(I:C)-induced SEAP activity (in words): did not affect
[2]; sample 30 μM, poly(I:C) 100 μg/ml
  Inhibition (%) of poly(I:C)-induced SEAP activity: 13.19%
[2]; sample 60 μM, poly(I:C) 100 μg/ml
  Inhibition (%) of poly(I:C)-induced SEAP activity: 11.16%
[3]
  Effect on poly(I)-induced SEAP activity (in words): did not affect
[1]
  Effect on STAT3 luciferase activity (in words): did not show the inhibitory effect
[1]; sample 30 μM
  Inhibition (%) of STAT3 luciferase activity: 8.3%
[1]; sample 60 μM
  Inhibition (%) of STAT3 luciferase activity: 15.9%
[1]; sample 100 μM
  Inhibition (%) of STAT3 luciferase activity: 0.4%

## O=c1cc(-c2ccc(O)c(O)c2)oc2cc(O)cc(O)c12 [Luteolin, reference compound]
[2]; [5]
  inhibition at 30 µM: 47.7%
[2]; [6]
  inhibition at 60 µM: 67.3%
[3]; [7]
  inhibition at 30 µM: 79.2%
[3]; [8]
  inhibition at 60 µM: 96.3%

## CC(=O)O[C@H]1CC[C@@]2(C)C(CC[C@]3(C)[C@@H]2CC=C2[C@H]4CC(C)(C)CC[C@]4(C(=O)O)CC[C@]23C)C1(C)C (stereo partly drawn) [Oleanolic acid acetate, 4aS,6aR,6aS,6bR,8aR,10S,12aR,14bS)-10-hydroxy-2,2,6a,6b,9,9,12a-heptamethyl-1,3,4,5,6,6a,7,8,8a,10,11,12,13,14b-tetradecahydropicene-4a-carboxylic acid acetate]
[2]; [9]
  inhibition at 10 µM: < 0%
  inhibition at 30 µM: 9.28%
  inhibition at 60 µM: 47.2%
  inhibition at 100 µM: 64.4%
[2]
  Effect on poly(I:C)-induced SEAP activity (in words): significantly inhibited
[3]; [10]
  inhibition at 10 µM: 2.02%
  inhibition at 30 µM: 43.9%
  inhibition at 60 µM: 74.6%
  inhibition at 100 µM: 83%
[3]
  Effect on poly(I)-induced SEAP activity (in words): significantly inhibited
[1]; Homo sapiens
  IC50: < 1000 nM
[1]
  Effect on STAT3 luciferase activity (in words): inhibited STAT3 luciferase activity in a concentration dependent manner
  IC50: 900 nM
[1]; sample 1 μM
  Inhibition (%) of STAT3 luciferase activity: 51.2%
[1]; sample 3 μM
  Inhibition (%) of STAT3 luciferase activity: 84.3%
[1]; sample 6 μM
  Inhibition (%) of STAT3 luciferase activity: 95.1%
[1]; sample 10 μM
  Inhibition (%) of STAT3 luciferase activity: 97.2%
[1]; sample 30 μM
  Inhibition (%) of STAT3 luciferase activity: 100%
STAT3 phosphorylation
  IL-6-induced STAT3 phosphorylation: showed the inhibitory effects
[4]; 10 μM
  Osteoclast differentiation: remarkable effect
[4]
  Osteoclast differentiation (number and size of TRAP-positive osteoclasts): remarkably inhibited
[4]; listed as compound of Chemical Formula 1
  Osteoclast differentiation (number and size of TRAP-positive osteoclasts): reduced in a concentration-dependent manner
